Measurements taken from patent US11453683B1, “KRas G12D inhibitors” (Mirati Therapeutics, Inc., priority 2019, dated 2022).
Where a name gives a salt, the structure may show the parent alone.

The molecules below were run on KRas G12D-mediated phosphorylation of ERK (assay: Inhibition of KRas G12D-mediated phosphorylation of ERK in AGS cells). Conditions: Homo sapiens; AGS cells expressing G12D, 3 hours, phospho-ERK normalized to GAPDH.
Format: cell-based
Procedure: Cells were plated in tissue culture treated 96 well plates at a density of 40,000 cells/well and allowed to attach for 12-14 hours. Diluted compounds were then added in a final concentration of 0.5% DMSO. After 3 hours, the medium was removed, 150 μL of 4.0% formaldehyde was added and the plates incubated at room temperature for 20 minutes. The plates were washed with PBS, and permeabilized with 150 μL of ice cold 100% methanol for 10 minutes. Non-specific antibody binding to the plates was blocked using 100 μL Licor blocking buffer (Li-Cor Biotechnology, Lincoln Nebr.) for 1 hour at room temperature.
The amount of phospho-ERK was determined using an antibody specific for the phosphorylated form of ERK and compared to the amount of GAPDH. Primary antibodies used for the detection were added as follows: Phospho-ERK (Cell Signaling cs-9101) diluted 1:500 and GAPDH (Millipore MAB374) diluted 1:5000 in Licor block+0.05% Tween 20. The plates were incubated for 2 hours at room temperature. The plates were washed with PBS+0.05% Tween 20.
Secondary antibodies used to visualize primary antibodies were added as follows: Anti-rabbit-680 diluted 1:1000 and Anti-mouse-800 diluted 1:1000 both in Licor block+0.05% TweeN2O, and were incubated for 1 hour at room temperature. The plates were washed with PBS+0.05% Tween 20. A 100 μL aliquot of PBS was added to each well and the plates were read on a Li-Cor Odyssey CLX plate reader.
The phospho-ERK (Thr202/Tyr204 signal was normalized to the GAPDH signal for each well and percent of DMSO control values were calculated. IC50 values were generated using a 4-parameter fit of the dose response curve

| SMILES | IC50 [µM] |
| --- | --- |
| COCCNC(=O)O[C@@H]1C[C@@H](COc2nc(N3C[C@H]4CC[C@@H](C3)N4)c3cnc(-c4cccc5cccc(Cl)c45)c(F)c3n2)N(C)C1 [Example 280, (3R,5S)-5-(((4-((1R,5S)-3,8-diazabicyclo[3.2.1]octan-3-yl)-7-(8-chloronaphthalen-1-yl)-8-fluoropyrido[4,3-d]pyrimidin-2-yl)oxy)methyl)-1-methylpyrrolidin-3-yl (2-methoxyethyl)carbamate] | 6.12 |
| O=C(OC[C@H]1CC[C@@]2(COc3nc(N4CC5CCC(C4)N5)c4cnc(-c5cccc6cccc(Cl)c56)c(F)c4n3)CCCN12)N1CCCCC1 [Example 444, ((3R,7aR)-7a-(((4-(3,8-diazabicyclo[3.2.1]octan-3-yl)-7-(8-chloronaphthalen-1-yl)-8-fluoropyrido[4,3-d]pyrimidin-2-yl)oxy)methyl)hexahydro-1H-pyrrolizin-3-yl)methyl piperidine-1-carboxylate] | 0.365 |
| CC(C)c1c(F)cc(O)cc1-c1ncc2c(N3C[C@H]4CC[C@@H](C3)N4)nc(OC[C@@]34CCCN3C[C@H](F)C4)nc2c1F [Example 290, 3-(4-((1R,5S)-3,8-diazabicyclo[3.2.1]octan-3-yl)-8-fluoro-2-(((2R,7aS)-2-fluorotetrahydro-1H-pyrrolizin-7a(5H)-yl)methoxy)pyrido[4,3-d]pyrimidin-7-yl)-5-fluoro-4-isopropylphenol] | 0.111 |
| CCc1ccc(O)cc1-c1ncc2c(N3C[C@H]4CC[C@@H](C3)N4)nc(OCC34CCCN3CCC4)nc2c1F [Example 263, 3-(4-((1R,5S)-3,8-diazabicyclo[3.2.1]octan-3-yl)-8-fluoro-2-((hexahydro-1H-pyrrolizin-7a-yl)methoxy)pyrido[4,3-d]pyrimidin-7-yl)-4-ethylphenol] | 7.64 |
| CC1(N)CN(c2nc(N3C[C@H]4CC[C@@H](C3)N4)c3cnc(-c4cc(O)cc5ccccc45)c(F)c3n2)C1 [Example 124, 4-(2-(3-amino-3-methylazetidin-1-yl)-4-((1R,5S)-3,8-diazabicyclo[3.2.1]octan-3-yl)-8-fluoropyrido[4,3-d]pyrimidin-7-yl)naphthalen-2-ol] | 11.1 |
| CN(C)CCOc1nc(N2C[C@H]3CC[C@@H](C2)N3)c2cnc(-c3cc(O)cc4ccccc34)c(F)c2n1 [Example 18, 4-(4-((1R,5S)-3,8-diazabicyclo[3.2.1]octan-3-yl)-2-(2-(dimethylamino)ethoxy)-8-fluoropyrido[4,3-d]pyrimidin-7-yl)naphthalen-2-ol] | 3.74 |
| C#Cc1cccc2cc(O)cc(-c3ncc4c(N5CC6CCC(C5)N6)nc(OC[C@@]56CCCN5C[C@H](OC)C6)nc4c3F)c12 (stereo in doubt) [Example 410, 4-(4-((1R,5S)-3,8-diazabicyclo[3.2.1]octan-3-yl)-8-fluoro-2-((2-methoxytetrahydro-1H-pyrrolizin-7a(5H)-yl)methoxy)pyrido[4,3-d]pyrimidin-7-yl)-5-ethynylnaphthalen-2-ol] | 0.008 |
| C[C@@H]1C[C@@H]1c1ccccc1-c1ncc2c(N3C[C@H]4CC[C@@H](C3)N4)nc(OCC34CCCN3CCC4)nc2c1F [Example 286, 4-((1R,5S)-3,8-diazabicyclo[3.2.1]octan-3-yl)-8-fluoro-2-((hexahydro-1H-pyrrolizin-7a-yl)methoxy)-7-(2-((1S,2R)-2-methylcyclopropyl)phenyl)pyrido[4,3-d]pyrimidine] | 1.73 |
| Cc1cccc(-c2ncc3c(N4C[C@H]5CC[C@@H](C4)N5)nc(OCC45CCCN4CCC5)nc3c2F)c1C(C)C [Example 301, 4-((1R,5S)-3,8-diazabicyclo[3.2.1]octan-3-yl)-8-fluoro-2-((hexahydro-1H-pyrrolizin-7a-yl)methoxy)-7-(2-isopropyl-3-methylphenyl)pyrido[4,3-d]pyrimidine] | 3.17 |
| Cc1ccc(O)cc1-c1ncc2c(N3C[C@H]4CC[C@@H](C3)N4)nc(OCC34CCCN3CCC4)nc2c1F [Example 256, 3-(4-((1R,5S)-3,8-diazabicyclo[3.2.1]octan-3-yl)-8-fluoro-2-((hexahydro-1H-pyrrolizin-7a-yl)methoxy)pyrido[4,3-d]pyrimidin-7-yl)-4-methylphenol] | > 16.7 |
| Cc1cccc(-c2ncc3c(N4C[C@H]5CC[C@@H](C4)N5)nc(OCC45CCCN4CCC5)nc3c2F)c1Cl [Example 276, 4-((1R,5S)-3,8-diazabicyclo[3.2.1]octan-3-yl)-7-(2-chloro-3-methylphenyl)-8-fluoro-2-((hexahydro-1H-pyrrolizin-7a-yl)methoxy)pyrido[4,3-d]pyrimidine] | 3.79 |
| C[C@H]1C[C@H]1c1ccccc1-c1ncc2c(N3C[C@H]4CC[C@@H](C3)N4)nc(OCC34CCCN3CCC4)nc2c1F [Example 287, 4-((1R,5S)-3,8-diazabicyclo[3.2.1]octan-3-yl)-8-fluoro-2-((hexahydro-1H-pyrrolizin-7a-yl)methoxy)-7-(2-((1R,2S)-2-methylcyclopropyl)phenyl)pyrido[4,3-d]pyrimidine] | 8.07 |
| Oc1cc(-c2ncc3c(N4C[C@H]5CC[C@@H](C4)N5)nc(OCCCN4CCOCC4)nc3c2F)c2ccccc2c1 [Example 22, 4-(4-((1R,5S)-3,8-diazabicyclo[3.2.1]octan-3-yl)-8-fluoro-2-(3-morpholinopropoxy)pyrido[4,3-d]pyrimidin-7-yl)naphthalen-2-ol] | 1.89 |
| CS(=O)(=O)NC[C@H]1CC[C@@]2(COc3nc(N4C[C@H]5CC[C@@H](C4)N5)c4cnc(-c5cccc6cccc(Cl)c56)c(F)c4n3)CCCN12 [Example 420, N-(((3R,7aR)-7a-(((4-((1R,5S)-3,8-diazabicyclo[3.2.1]octan-3-yl)-7-(8-chloronaphthalen-1-yl)-8-fluoropyrido[4,3-d]pyrimidin-2-yl)oxy)methyl)hexahydro-1H-pyrrolizin-3-yl)methyl)methanesulfonamide] | 7.82 |
| Cn1cc([C@H]2CN3CCC[C@]3(COc3nc(N4CC5CCC(C4)N5)c4cnc(-c5cccc6cccc(Cl)c56)c(F)c4n3)C2)cn1 (stereo in doubt) [Example 220, 4-((1R,5S)-3,8-diazabicyclo[3.2.1]octan-3-yl)-7-(8-chloronaphthalen-1-yl)-8-fluoro-2-((2-(1-methyl-1H-pyrazol-4-yl)tetrahydro-1H-pyrrolizin-7a(5H)-yl)methoxy)pyrido[4,3-d]pyrimidine tris-hydrochloride salt] | 1.34 |
| C=Cc1cccc2cccc(-c3ncc4c(N5C[C@H]6CC[C@@H](C5)N6)nc(OC[C@@H]5CCCN5C)nc4c3F)c12 [Example 201, 4-((1R,5S)-3,8-diazabicyclo[3.2.1]octan-3-yl)-8-fluoro-2-(((S)-1-methylpyrrolidin-2-yl)methoxy)-7-(8-vinylnaphthalen-1-yl)pyrido[4,3-d]pyrimidine] | 13.9 |
| CCn1ccc2cccc(-c3ncc4c(N5C[C@H]6CC[C@@H](C5)N6)nc(OCC56CCCN5CCC6)nc4c3F)c21 [Example 427, 4-((1R,5S)-3,8-diazabicyclo[3.2.1]octan-3-yl)-7-(1-ethyl-1H-indol-7-yl)-8-fluoro-2-((hexahydro-1H-pyrrolizin-7a-yl)methoxy)pyrido[4,3-d]pyrimidine] | 1.98 |
| Fc1cccc(-c2ncc3c(N4C[C@H]5CC[C@@H](C4)N5)nc(OCC45CCCN4CCC5)nc3c2F)c1C1CC1 [Example 304, 4-((1R,5S)-3,8-diazabicyclo[3.2.1]octan-3-yl)-7-(2-cyclopropyl-3-fluorophenyl)-8-fluoro-2-((hexahydro-1H-pyrrolizin-7a-yl)methoxy)pyrido[4,3-d]pyrimidine] | 1.42 |
| Cc1c(-c2cc(O)cc3ccccc23)ncc2c(N3C[C@H]4CC[C@@H](C3)N4)nc(OC[C@@H]3CCCN3C)nc12 [Example 190, 4-(4-((1R,5S)-3,8-diazabicyclo[3.2.1]octan-3-yl)-8-methyl-2-(((S)-1-methylpyrrolidin-2-yl)methoxy)pyrido[4,3-d]pyrimidin-7-yl)naphthalen-2-ol] | 16.3 |
| Fc1c(-c2c(C(F)(F)F)ccc3[nH]ncc23)ncc2c(N3CC4CCC(C3)N4)nc(OCC34CCCN3C[C@H](F)C4)nc12 (mixture of isomers) [Example 343, 4-((1R,5S)-3,8-diazabicyclo[3.2.1]octan-3-yl)-8-fluoro-2-((2-fluorotetrahydro-1H-pyrrolizin-7a(5H)-yl)methoxy)-7-(5-(trifluoromethyl)-1H-indazol-4-yl)pyrido[4,3-d]pyrimidine] | 1.62 |
| Fc1c(-c2cncc3cccc(Cl)c23)ncc2c(N3C[C@H]4CC[C@@H](C3)N4)nc(OC[C@]34CCCN3C[C@@H](F)C4)nc12 [Example 203, 4-((1R,5S)-3,8-diazabicyclo[3.2.1]octan-3-yl)-7-(5-chloroisoquinolin-4-yl)-8-fluoro-2-(((2S,7aR)-2-fluorotetrahydro-1H-pyrrolizin-7a(5H)-yl)methoxy)pyrido[4,3-d]pyrimidine] | 2.18 |
| Oc1cc(-c2ncc3c(N4C[C@H]5CC[C@@H](C4)N5)ncnc3c2F)c2ccccc2c1 [Example 181, 4-(4-((1R,5S)-3,8-diazabicyclo[3.2.1]octan-3-yl)-8-fluoropyrido[4,3-d]pyrimidin-7-yl)naphthalen-2-ol] | 12.8 |
